# In the kinase profiling compilation of Christmann-Franck et al. (2016):
# Where “and” joins values, the source holds several entries; their conditions need not be identical. Identical values can stand only once.
# Assays:
# Test in all cases: radiometric filter-binding kinase assay, Kinase HotSpot
# Conditions in all cases: compound 0.5 µM; ATP 10 µM
# [1] = biological target: ACVR1B (human) (UniProt P36896)
# [2] = biological target: AKT1 (human) (UniProt P31749)
# [3] = biological target: AXL (human) (UniProt P30530)
# [4] = biological target: CAMK1G (human) (UniProt Q96NX5)
# [5] = biological target: CAMK2A (human) (UniProt Q9UQM7)
# [6] = biological target: CAMK2B (human) (UniProt Q13554)
# [7] = biological target: CAMK4 (human) (UniProt Q16566)
# [8] = biological target: CDC42BPB (human) (UniProt Q9Y5S2)
# [9] = biological target: CSNK2A1 (human) (UniProt P68400)
# [10] = biological target: DAPK3 (human) (UniProt O43293)
# [11] = biological target: GSK3A (human) (UniProt P49840)
# [12] = biological target: GSK3B (human) (UniProt P49841)
# [13] = biological target: JAK3 JH1 JH2 (human) (UniProt P52333)
# [14] = biological target: KDR (human) (UniProt P35968)
# [15] = biological target: LTK (human) (UniProt P29376)
# [16] = biological target: MAP2K2 (human) (UniProt P36507)
# [17] = biological target: MAPK12 (human) (UniProt P53778)
# [18] = biological target: MAPK3 (human) (UniProt P27361)
# [19] = biological target: MAPK8 (human) (UniProt P45983)
# [20] = biological target: MAPKAPK3 (human) (UniProt Q16644)
# [21] = biological target: MARK3 (human) (UniProt P27448)
# [22] = biological target: MST4 (human) (UniProt Q9P289)
# [23] = biological target: NEK4 (human) (UniProt P51957)
# [24] = biological target: NTRK1 (human) (UniProt P04629)
# [25] = biological target: NTRK3 (human) (UniProt Q16288)
# [26] = biological target: NUAK2 (human) (UniProt Q9H093)
# [27] = biological target: PAK7 (human) (UniProt Q9P286)
# [28] = biological target: PLK3 (human) (UniProt Q9H4B4)
# [29] = biological target: PRKACA (human) (UniProt P17612)
# [30] = biological target: PRKCB2 (human) (UniProt P05771)
# [31] = biological target: PRKG1 (human) (UniProt Q13976)
# [32] = biological target: PTK2 (human) (UniProt Q05397)
# [33] = biological target: ROCK1 (human) (UniProt Q13464)
# [34] = biological target: RPS6KA2 KD1 KD2 (human) (UniProt Q15349)
# [35] = biological target: SLK (human) (UniProt Q9H2G2)
# [36] = biological target: SRPK1 (human) (UniProt Q96SB4)
# [37] = biological target: STK33 (human) (UniProt Q9BYT3)
# [38] = biological target: TEK (human) (UniProt Q02763)
# [39] = biological target: TNK2 (human) (UniProt Q07912)
# [40] = biological target: TSSK1B (human) (UniProt Q9BXA7)
# [41] = biological target: TYK2 JH1 catalytic (human) (UniProt P29597)
# [42] = biological target: WEE1 (human) (UniProt P30291)
# Chain of DAPK3 (human) (O43293 whole entry, looked up): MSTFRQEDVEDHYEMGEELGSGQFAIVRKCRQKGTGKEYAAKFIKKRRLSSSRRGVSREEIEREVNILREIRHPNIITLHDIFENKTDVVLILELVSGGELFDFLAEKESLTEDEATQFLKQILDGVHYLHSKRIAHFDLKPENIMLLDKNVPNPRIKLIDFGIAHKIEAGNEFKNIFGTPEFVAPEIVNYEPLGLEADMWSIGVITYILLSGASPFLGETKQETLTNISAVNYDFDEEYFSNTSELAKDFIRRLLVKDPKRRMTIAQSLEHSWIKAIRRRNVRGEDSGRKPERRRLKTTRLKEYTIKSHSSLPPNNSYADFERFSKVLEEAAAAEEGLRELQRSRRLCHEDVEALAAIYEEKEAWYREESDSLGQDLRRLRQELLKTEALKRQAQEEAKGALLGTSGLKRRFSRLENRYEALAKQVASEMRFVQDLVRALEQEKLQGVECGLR
# Chain of MAP2K2 (human) (P36507 whole entry, looked up): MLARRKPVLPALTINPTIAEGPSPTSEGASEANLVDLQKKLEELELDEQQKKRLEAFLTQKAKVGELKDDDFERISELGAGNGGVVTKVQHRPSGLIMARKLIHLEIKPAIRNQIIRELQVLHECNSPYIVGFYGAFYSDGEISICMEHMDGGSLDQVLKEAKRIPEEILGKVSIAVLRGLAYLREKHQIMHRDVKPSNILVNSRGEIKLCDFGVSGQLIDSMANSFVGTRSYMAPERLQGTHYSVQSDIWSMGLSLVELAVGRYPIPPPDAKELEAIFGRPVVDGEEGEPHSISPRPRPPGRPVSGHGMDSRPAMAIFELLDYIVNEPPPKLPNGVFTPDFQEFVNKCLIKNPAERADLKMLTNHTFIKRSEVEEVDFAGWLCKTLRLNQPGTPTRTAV
# Chain of CAMK1G (human) (Q96NX5 whole entry, looked up): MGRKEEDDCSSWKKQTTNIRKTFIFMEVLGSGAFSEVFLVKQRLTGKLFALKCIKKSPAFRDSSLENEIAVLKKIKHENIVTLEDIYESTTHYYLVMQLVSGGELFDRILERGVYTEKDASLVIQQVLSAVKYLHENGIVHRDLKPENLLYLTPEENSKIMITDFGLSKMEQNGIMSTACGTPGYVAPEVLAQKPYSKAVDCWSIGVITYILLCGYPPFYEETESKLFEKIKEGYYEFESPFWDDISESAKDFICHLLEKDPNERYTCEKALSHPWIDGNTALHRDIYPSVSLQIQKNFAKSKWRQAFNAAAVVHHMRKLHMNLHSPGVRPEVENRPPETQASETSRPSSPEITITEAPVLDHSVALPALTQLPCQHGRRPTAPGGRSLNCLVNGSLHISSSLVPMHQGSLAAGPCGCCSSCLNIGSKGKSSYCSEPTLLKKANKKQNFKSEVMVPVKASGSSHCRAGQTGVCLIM
# Chain of TSSK1B (human) (Q9BXA7 whole entry, looked up): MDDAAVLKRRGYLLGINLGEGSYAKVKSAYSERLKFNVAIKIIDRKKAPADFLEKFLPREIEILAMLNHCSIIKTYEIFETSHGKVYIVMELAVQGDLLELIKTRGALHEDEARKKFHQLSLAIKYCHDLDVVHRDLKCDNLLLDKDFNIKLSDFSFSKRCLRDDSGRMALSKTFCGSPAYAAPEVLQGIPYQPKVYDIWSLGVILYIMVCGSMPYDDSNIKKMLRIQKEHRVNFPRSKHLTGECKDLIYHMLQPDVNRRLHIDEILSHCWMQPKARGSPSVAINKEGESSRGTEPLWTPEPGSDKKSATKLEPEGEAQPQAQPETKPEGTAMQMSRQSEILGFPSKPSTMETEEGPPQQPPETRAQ
# Chain of MAPK12 (human) (P53778 whole entry, looked up): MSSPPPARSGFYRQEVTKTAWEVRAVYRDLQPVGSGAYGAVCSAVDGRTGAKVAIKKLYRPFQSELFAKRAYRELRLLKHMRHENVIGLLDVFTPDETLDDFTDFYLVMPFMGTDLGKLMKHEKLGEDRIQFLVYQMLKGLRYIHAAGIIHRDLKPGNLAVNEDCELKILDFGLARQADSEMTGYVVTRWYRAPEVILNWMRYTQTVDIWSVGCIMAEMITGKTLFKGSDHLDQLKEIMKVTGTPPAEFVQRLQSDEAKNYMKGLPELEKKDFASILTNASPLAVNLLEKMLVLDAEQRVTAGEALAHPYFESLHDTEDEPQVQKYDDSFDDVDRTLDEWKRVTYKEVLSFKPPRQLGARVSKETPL
# Chain of CSNK2A1 (human) (P68400 whole entry, looked up): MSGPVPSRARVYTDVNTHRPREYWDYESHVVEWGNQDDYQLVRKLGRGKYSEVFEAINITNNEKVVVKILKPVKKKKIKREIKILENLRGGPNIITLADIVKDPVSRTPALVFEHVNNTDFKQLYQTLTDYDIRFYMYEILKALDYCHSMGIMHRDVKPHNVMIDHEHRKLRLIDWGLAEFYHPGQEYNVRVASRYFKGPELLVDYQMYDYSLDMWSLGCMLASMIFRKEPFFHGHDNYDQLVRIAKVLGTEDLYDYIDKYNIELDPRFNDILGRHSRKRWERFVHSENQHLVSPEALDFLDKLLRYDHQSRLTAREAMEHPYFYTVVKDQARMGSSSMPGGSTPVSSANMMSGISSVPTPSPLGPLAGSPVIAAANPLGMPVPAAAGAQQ
# Chain of ROCK1 (human) (Q13464 whole entry, looked up): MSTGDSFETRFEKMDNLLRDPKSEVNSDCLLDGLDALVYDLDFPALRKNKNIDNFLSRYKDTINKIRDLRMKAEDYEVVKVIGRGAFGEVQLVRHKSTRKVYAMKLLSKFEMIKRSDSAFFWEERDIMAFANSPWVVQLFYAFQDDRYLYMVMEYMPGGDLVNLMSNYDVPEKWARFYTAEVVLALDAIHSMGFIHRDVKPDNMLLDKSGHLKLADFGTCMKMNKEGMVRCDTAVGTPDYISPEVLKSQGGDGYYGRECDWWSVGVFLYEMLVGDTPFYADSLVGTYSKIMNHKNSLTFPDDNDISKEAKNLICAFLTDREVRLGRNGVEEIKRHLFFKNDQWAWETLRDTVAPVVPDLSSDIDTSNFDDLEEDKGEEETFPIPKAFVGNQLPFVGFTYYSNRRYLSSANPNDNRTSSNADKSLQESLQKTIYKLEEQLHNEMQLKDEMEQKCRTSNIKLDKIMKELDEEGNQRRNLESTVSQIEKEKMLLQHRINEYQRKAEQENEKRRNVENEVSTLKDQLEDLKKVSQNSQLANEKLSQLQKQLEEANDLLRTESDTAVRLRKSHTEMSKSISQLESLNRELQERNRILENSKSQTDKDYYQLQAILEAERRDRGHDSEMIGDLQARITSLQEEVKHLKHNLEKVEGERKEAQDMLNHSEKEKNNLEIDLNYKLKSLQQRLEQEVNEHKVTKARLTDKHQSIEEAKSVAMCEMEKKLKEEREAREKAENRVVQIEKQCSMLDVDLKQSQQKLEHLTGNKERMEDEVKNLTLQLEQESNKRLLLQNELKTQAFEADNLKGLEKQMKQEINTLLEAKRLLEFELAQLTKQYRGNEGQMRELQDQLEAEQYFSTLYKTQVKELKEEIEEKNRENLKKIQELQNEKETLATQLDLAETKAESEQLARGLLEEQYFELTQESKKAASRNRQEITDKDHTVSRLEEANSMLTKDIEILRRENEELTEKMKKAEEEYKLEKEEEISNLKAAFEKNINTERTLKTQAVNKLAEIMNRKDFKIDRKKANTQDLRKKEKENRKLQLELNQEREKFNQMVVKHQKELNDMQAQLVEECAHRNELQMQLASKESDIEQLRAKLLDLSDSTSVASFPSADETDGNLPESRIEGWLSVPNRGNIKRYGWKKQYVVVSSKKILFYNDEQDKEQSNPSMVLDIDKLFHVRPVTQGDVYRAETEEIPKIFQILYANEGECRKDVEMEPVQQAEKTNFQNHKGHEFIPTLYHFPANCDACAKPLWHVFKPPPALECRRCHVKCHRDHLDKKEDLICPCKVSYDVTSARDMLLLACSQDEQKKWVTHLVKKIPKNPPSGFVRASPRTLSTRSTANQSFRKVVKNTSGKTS
# Chain of NUAK2 (human) (Q9H093 whole entry, looked up): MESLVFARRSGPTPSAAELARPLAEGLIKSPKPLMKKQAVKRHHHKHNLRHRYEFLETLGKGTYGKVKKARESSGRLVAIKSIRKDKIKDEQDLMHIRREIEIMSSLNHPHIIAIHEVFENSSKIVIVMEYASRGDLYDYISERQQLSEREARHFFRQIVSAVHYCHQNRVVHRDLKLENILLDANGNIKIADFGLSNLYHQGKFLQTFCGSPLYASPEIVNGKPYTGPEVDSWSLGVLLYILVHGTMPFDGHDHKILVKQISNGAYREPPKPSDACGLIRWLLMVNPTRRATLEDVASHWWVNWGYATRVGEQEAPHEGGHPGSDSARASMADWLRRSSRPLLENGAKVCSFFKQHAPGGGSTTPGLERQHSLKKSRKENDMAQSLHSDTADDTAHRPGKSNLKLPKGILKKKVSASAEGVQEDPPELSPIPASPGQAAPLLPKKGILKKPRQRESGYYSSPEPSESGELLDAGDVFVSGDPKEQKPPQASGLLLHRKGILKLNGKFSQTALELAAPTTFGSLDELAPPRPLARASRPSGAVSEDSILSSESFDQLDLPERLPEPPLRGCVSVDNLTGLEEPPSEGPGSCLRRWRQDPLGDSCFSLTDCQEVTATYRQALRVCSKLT
# Chain of GSK3B (human) (P49841 whole entry, looked up): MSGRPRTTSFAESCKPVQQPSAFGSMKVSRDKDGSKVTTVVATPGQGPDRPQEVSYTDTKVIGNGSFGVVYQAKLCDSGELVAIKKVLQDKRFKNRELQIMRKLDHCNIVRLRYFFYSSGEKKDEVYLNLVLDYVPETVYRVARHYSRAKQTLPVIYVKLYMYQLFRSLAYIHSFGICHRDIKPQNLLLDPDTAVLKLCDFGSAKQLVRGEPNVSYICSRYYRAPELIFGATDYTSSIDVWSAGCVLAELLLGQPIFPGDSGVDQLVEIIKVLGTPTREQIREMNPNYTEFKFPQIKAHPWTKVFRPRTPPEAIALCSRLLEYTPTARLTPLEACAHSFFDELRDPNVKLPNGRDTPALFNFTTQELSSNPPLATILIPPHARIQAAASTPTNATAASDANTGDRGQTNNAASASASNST
compound,measurement,setting,value
COc1cc2ncnc(Nc3ccc(Oc4ccccc4)cc3)c2cc1OC,residual activity,[1],97.5%
same,residual activity,[2],107%
same,residual activity,[3],98.2%
same,residual activity,[4],101%
same,residual activity,[5],102%
same,residual activity,[6],98.2%
same,residual activity,[7],97.8%
same,residual activity,[8],106%
same,residual activity,[9],114%
same,residual activity,[10],96.9%
same,residual activity,[11],97%
same,residual activity,[12],109%
same,residual activity,[13],93.1%
same,residual activity,[14],92.1%
same,residual activity,[15],98.3%
same,residual activity,[16],105%
same,residual activity,[17],105%
same,residual activity,[18],105%
same,residual activity,[19],91.8%
same,residual activity,[20],98.9%
same,residual activity,[21],108%
same,residual activity,[22],102%
same,residual activity,[23],96.8%
same,residual activity,[24],101%
same,residual activity,[25],99.7%
same,residual activity,[26],137%
same,residual activity,[27],103%
same,residual activity,[28],97.1%
same,residual activity,[29],102%
same,residual activity,[30],92.8%
same,residual activity,[31],92.5% and 93.6%
same,residual activity,[32],98.1%
same,residual activity,[33],102%
same,residual activity,[34],98%
same,residual activity,[35],88.7%
same,residual activity,[36],105%
same,residual activity,[37],96.3%
same,residual activity,[38],99.7%
same,residual activity,[39],49%
same,residual activity,[40],104%
same,residual activity,[41],107%
same,residual activity,[42],99.1%
O=C1NC(=O)c2c1c1c3ccccc3[nH]c1n1cncc21,residual activity,[1],103%
same,residual activity,[2],102%
same,residual activity,[3],91.7%
same,residual activity,[4],94.7%
same,residual activity,[5],55.1%
same,residual activity,[6],58.2%
same,residual activity,[7],89.8%
same,residual activity,[8],94.8%
same,residual activity,[9],52.6%
same,residual activity,[10],29.6%
same,residual activity,[11],10.4%
same,residual activity,[12],30.8%
same,residual activity,[13],140%
same,residual activity,[14],66.6%
same,residual activity,[15],80.8%
same,residual activity,[16],85.9%
same,residual activity,[17],85.9%
same,residual activity,[18],87.8%
same,residual activity,[19],83.9%
same,residual activity,[20],88.7%
same,residual activity,[21],29.8%
same,residual activity,[22],69.4%
same,residual activity,[23],88.4%
same,residual activity,[24],89.8%
same,residual activity,[25],26.1%
same,residual activity,[26],80.1%
same,residual activity,[27],80%
same,residual activity,[28],48.2%
same,residual activity,[29],98.2%
same,residual activity,[30],94.7%
same,residual activity,[31],85.9% and 93.8%
same,residual activity,[32],56.9%
same,residual activity,[33],95.9%
same,residual activity,[34],32.7%
same,residual activity,[35],87.8%
same,residual activity,[36],95.4%
same,residual activity,[37],52.3%
same,residual activity,[38],78.9%
same,residual activity,[39],41.3%
same,residual activity,[40],84.4%
same,residual activity,[41],85.4%
same,residual activity,[42],94.7%
c1ccc2c(-c3ccncc3)c[nH]c2c1,residual activity,[1],98.8%
same,residual activity,[2],100%
same,residual activity,[3],99.8%
same,residual activity,[4],99%
same,residual activity,[5],104%
same,residual activity,[6],90.5%
same,residual activity,[7],101%
same,residual activity,[8],104%
same,residual activity,[9],95%
same,residual activity,[10],101%
same,residual activity,[11],103%
same,residual activity,[12],104%
same,residual activity,[13],95.3%
same,residual activity,[14],94.2%
same,residual activity,[15],103%
same,residual activity,[16],103%
same,residual activity,[17],104%
same,residual activity,[18],98.9%
same,residual activity,[19],100%
same,residual activity,[20],97.8%
same,residual activity,[21],98%
same,residual activity,[22],104%
same,residual activity,[23],95.4%
same,residual activity,[24],97%
same,residual activity,[25],100%
same,residual activity,[26],136%
same,residual activity,[27],93.8%
same,residual activity,[28],95.3%
same,residual activity,[29],91.6%
same,residual activity,[30],89.5%
same,residual activity,[31],64.8% and 77.7%
same,residual activity,[32],97.7%
same,residual activity,[33],84.2%
same,residual activity,[34],89%
same,residual activity,[35],103%
same,residual activity,[36],108%
same,residual activity,[37],97.3%
same,residual activity,[38],101%
same,residual activity,[39],96.1%
same,residual activity,[40],103%
same,residual activity,[41],101%
same,residual activity,[42],89.3%
O=C(c1cc2cc(O)ccc2[nH]1)c1cc2cc(O)ccc2[nH]1,residual activity,[1],98.9%
same,residual activity,[2],98.2%
same,residual activity,[3],90.1%
same,residual activity,[4],101%
same,residual activity,[5],74.5%
same,residual activity,[6],93.4%
same,residual activity,[7],96.5%
same,residual activity,[8],96.2%
same,residual activity,[9],88.7%
same,residual activity,[10],104%
same,residual activity,[11],75.7%
same,residual activity,[12],78.7%
same,residual activity,[13],94.5%
same,residual activity,[14],69.9%
same,residual activity,[15],91.6%
same,residual activity,[16],98.8%
same,residual activity,[17],97.9%
same,residual activity,[18],107%
same,residual activity,[19],112%
same,residual activity,[20],91.2%
same,residual activity,[21],84.4%
same,residual activity,[22],101%
same,residual activity,[23],87.6%
same,residual activity,[24],57.2%
same,residual activity,[25],13.4%
same,residual activity,[26],95.7%
same,residual activity,[27],85.3%
same,residual activity,[28],101%
same,residual activity,[29],107%
same,residual activity,[30],98.9%
same,residual activity,[31],84.3% and 90%
same,residual activity,[32],109%
same,residual activity,[33],96.2%
same,residual activity,[34],22.2%
same,residual activity,[35],78.6%
same,residual activity,[36],92.2%
same,residual activity,[37],77.5%
same,residual activity,[38],104%
same,residual activity,[39],90.6%
same,residual activity,[40],96.4%
same,residual activity,[41],66.7%
same,residual activity,[42],90.6%
